The source of these data is ChEMBL document CHEMBL1143717, “Biologically active natural products from Mongolian medicinal plants Scorzonera divaricata and Scorzonera pseudodivaricata” (J Nat Prod, 2007).

This experiment concerns Radical scavenging activity. Description: Antioxidant activity assessed as DPPH radical scavenging activity. The experiment is classed as functional. (In general: DPPH is a stable violet radical that fades when it is reduced.)

The structures appear in SMILES notation. Activity calls are given as the source filed them. No cut-off for these calls is given here.

`CC1=CC(=O)C2=C(C)C[C@H](OC(=O)CCc3ccc(OC4O[C@H](CO)[C@@H](O)[C@H](O)[C@H]4O)cc3)[C@@H]3[C@H](OC(=O)[C@H]3C)[C@@H]12` (some centres not stated): the outcome was inactive.

For `CCCCCC(=O)O[C@H]1[C@H](Oc2cc(CC(=O)CCc3ccc(O)cc3)c(O)c(C(=O)O)c2)O[C@H](CO)[C@@H](O)[C@@H]1O`, the result was inactive.
